The numbers were not newly measured in patent US20060257475A1, “Stable Sertraline Hydrochloride Formulation and Method” (Boehringer Ingelheim International GmbH, priority 2006, published 2006), which cites them from elsewhere.

For data set [1] the following is noted: reported in U.S. Pat. No. 5,248,699.
For data set [2] the following is noted: reported in U.S. Pat. No. 5,734,083.

With `CN[C@H]1CC[C@@H](c2ccc(Cl)c(Cl)c2)c2ccccc21` [Form I, (1S-cis)-4-(3,4-Dichlorophenyl)-1,2,3,4-tetrahydro-N-methyl-1-napththalenamine], in data set [1], the “Stability among Forms I to V” value is recorded as “greatest stability of these five forms”. Besides, in data set [1] (room temperature), the “Thermodynamic stability relative to other crystalline forms” value is “more thermodynamically stable than Forms II, III, IV, and V”. For the same molecule, the Solubility entry in data set [2] is recorded as “extremely insoluble”.
